Laboratory results taken from ChEMBL document CHEMBL4304802, “Novel promising 4-anilinoquinazoline-based derivatives as multi-target RTKs inhibitors: Design, molecular docking, synthesis, and antitumor activities in vitro and vivo” (Bioorg Med Chem, 2019).
Values belong to the molecule of their own block, whether it stands above or below them. Active and inactive are the calls of the source. The rule behind the calls is not given here.

Experiments:
HepG2 [1] = test: Antiproliferative activity against human HepG2 cells incubated for 72 hrs by MTT assay; assay type: functional, cell-based; settings: HepG2, 72 h
SH-SY5Y = test: Antiproliferative activity against human SH-SY5Y cells incubated for 72 hrs by MTT assay; assay type: functional, cell-based
A549 = test: Antiproliferative activity against human A549 cells incubated for 72 hrs by MTT assay; assay type: functional, cell-based; settings: A549, 72 h
MCF7 = test: Antiproliferative activity against human MCF7 cells incubated for 72 hrs by MTT assay; assay type: functional, cell-based; settings: MCF7, 72 h
DU-145 = test: Antiproliferative activity against human DU145 cells incubated for 72 hrs by MTT assay; assay type: functional, cell-based; settings: DU-145, 72 h
[2] = Cytotoxicity against human CCC-HPF1 cells assessed as decrease in cell viability incubated for 72 hrs by MTT assay; assay type: cell-based; settings: CCC-HPF-1, 72 h
HepG2 [3] = test: Antitumor activity against human HepG2 cells xenografted in nude mouse assessed as inhibition of tumor at 40 mg/kg administrated daily for 30 days post implantation by vernier caliper analysis relative to control; assay type: functional; settings: HepG2, 720 h
[4] = Toxicity in nude mouse xenografted with human HepG2 cells assessed as change in body weight at 20 mg/kg administrated daily for 50 days post implantation; assay type: organism-based; settings: in vivo, 1200 h
[5] = Toxicity in nude mouse xenografted with human HepG2 cells assessed as change in body weight at 40 mg/kg administrated daily for 50 days post implantation; assay type: organism-based; settings: in vivo, 1200 h
[6] = target: Epidermal growth factor receptor (Homo sapiens, UniProt P00533); test: Inhibition of EGFR (unknown origin) using TK substrate incubated for 60 mins by FRET assay
[7] = target: Vascular endothelial growth factor receptor 2 (Homo sapiens, UniProt P35968); test: Inhibition of VEGFR2 (unknown origin) using TK substrate incubated for 60 mins by FRET assay
[8] = target: Platelet-derived growth factor receptor beta (Homo sapiens, UniProt P09619); test: Inhibition of PDGFRbeta (unknown origin) using TK substrate incubated for 60 mins by FRET assay
HepG2 [9] = test: Induction of apoptosis in human HepG2 cells assessed as viable cells at 0.5 times IC50 incubated for 48 hrs by Annexin V-FITC and PI staining based flow cytometric analysis (reference value: 93.4%); assay type: functional
HepG2 [10] = test: Induction of apoptosis in human HepG2 cells assessed as early apoptotic cells at 0.5 times IC50 incubated for 48 hrs by Annexin V-FITC and PI staining based flow cytometric analysis (reference value: 1.75%); assay type: functional
HepG2 [11] = test: Induction of apoptosis in human HepG2 cells assessed as late apoptotic cells at 0.5 times IC50 incubated for 48 hrs by Annexin V-FITC and PI staining based flow cytometric analysis (reference value: 3.47%); assay type: functional
HepG2 [12] = test: Induction of apoptosis in human HepG2 cells assessed as necrotic cells at 0.5 times IC50 incubated for 48 hrs by Annexin V-FITC and PI staining based flow cytometric analysis (reference value: 1.36%); assay type: functional
HepG2 [13] = test: Induction of apoptosis in human HepG2 cells assessed as viable cells at IC50 incubated for 48 hrs by Annexin V-FITC and PI staining based flow cytometric analysis (reference value: 93.4%); assay type: functional
HepG2 [14] = test: Induction of apoptosis in human HepG2 cells assessed as early apoptotic cells at IC50 incubated for 48 hrs by Annexin V-FITC and PI staining based flow cytometric analysis (reference value: 1.75%); assay type: functional
HepG2 [15] = test: Induction of apoptosis in human HepG2 cells assessed as late apoptotic cells at IC50 incubated for 48 hrs by Annexin V-FITC and PI staining based flow cytometric analysis (reference value: 3.47%); assay type: functional
HepG2 [16] = test: Induction of apoptosis in human HepG2 cells assessed as necrotic cells at IC50 incubated for 48 hrs by Annexin V-FITC and PI staining based flow cytometric analysis (reference value: 1.36%); assay type: functional
HepG2 [17] = test: Induction of apoptosis in human HepG2 cells assessed as viable cells at 2 times IC50 incubated for 48 hrs by Annexin V-FITC and PI staining based flow cytometric analysis (reference value: 93.4%); assay type: functional
HepG2 [18] = test: Induction of apoptosis in human HepG2 cells assessed as early apoptotic cells at 2 times IC50 incubated for 48 hrs by Annexin V-FITC and PI staining based flow cytometric analysis (reference value: 1.75%); assay type: functional
HepG2 [19] = test: Induction of apoptosis in human HepG2 cells assessed as late apoptotic cells at 2 times IC50 incubated for 48 hrs by Annexin V-FITC and PI staining based flow cytometric analysis (reference value: 3.47%); assay type: functional
HepG2 [20] = test: Induction of apoptosis in human HepG2 cells assessed as necrotic cells at 2 times IC50 incubated for 48 hrs by Annexin V-FITC and PI staining based flow cytometric analysis (reference value: 1.36%); assay type: functional
HepG2 [21] = test: Induction of apoptosis in human HepG2 cells assessed as cell shrinkage at 2 to 8 uM incubated for 48 hrs by optical microscopic method; assay type: functional, cell-based
HepG2 [22] = test: Induction of apoptosis in human HepG2 cells assessed as decrease in cell number at 2 to 8 uM incubated for 48 hrs by optical microscopic method; assay type: functional, cell-based
HepG2 [23] = test: Induction of apoptosis in human HepG2 cells assessed as cell detachment at 2 to 8 uM incubated for 48 hrs by optical microscopic method; assay type: functional, cell-based
HepG2 [24] = test: Disruption of mitochondrial membrane potential in human HepG2 cells at 1.5 uM to 5 uM incubated for 48 hrs by JC-1 dye based fluorescence spectrophotometric analysis; assay type: functional, cell-based
HepG2 [25] = test: Disruption of mitochondrial membrane potential in human HepG2 cells assessed as appearance of cell desquamation at 1.5 uM to 5 uM incubated for 48 hrs by JC-1 dye based LSCM analysis; assay type: functional
HepG2 [26] = test: Disruption of mitochondrial membrane potential in human HepG2 cells assessed as cell shriveled at 1.5 uM to 5 uM incubated for 48 hrs by JC-1 dye based LSCM analysis; assay type: functional
HepG2 [27] = test: Induction of ROS generation in human HepG2 cells assessed as increase in green fluorescence incubated for 48 hrs by DCFH-DA staining based LSCM method; assay type: functional, cell-based
HepG2 [28] = test: Antitumor activity against human HepG2 cells xenografted in nude mouse assessed as suppression of tumor volume at 20 to 40 mg/kg administrated daily for 50 days post implantation by vernier caliper analysis; assay type: functional, organism-based
HepG2 [29] = test: Antitumor activity against human HepG2 cells xenografted in nude mouse assessed as inhibition of tumor growth administrated daily for 50 days post implantation by vernier caliper analysis; assay type: functional
[30] = Toxicity in nude mouse xenografted with human HepG2 cells assessed as change in body weight at 20 to 30 mg/kg administrated daily for 50 days post implantation; assay type: organism-based; settings: in vivo, 1200 h

Epidermal growth factor receptor, sequence (P00533 whole entry): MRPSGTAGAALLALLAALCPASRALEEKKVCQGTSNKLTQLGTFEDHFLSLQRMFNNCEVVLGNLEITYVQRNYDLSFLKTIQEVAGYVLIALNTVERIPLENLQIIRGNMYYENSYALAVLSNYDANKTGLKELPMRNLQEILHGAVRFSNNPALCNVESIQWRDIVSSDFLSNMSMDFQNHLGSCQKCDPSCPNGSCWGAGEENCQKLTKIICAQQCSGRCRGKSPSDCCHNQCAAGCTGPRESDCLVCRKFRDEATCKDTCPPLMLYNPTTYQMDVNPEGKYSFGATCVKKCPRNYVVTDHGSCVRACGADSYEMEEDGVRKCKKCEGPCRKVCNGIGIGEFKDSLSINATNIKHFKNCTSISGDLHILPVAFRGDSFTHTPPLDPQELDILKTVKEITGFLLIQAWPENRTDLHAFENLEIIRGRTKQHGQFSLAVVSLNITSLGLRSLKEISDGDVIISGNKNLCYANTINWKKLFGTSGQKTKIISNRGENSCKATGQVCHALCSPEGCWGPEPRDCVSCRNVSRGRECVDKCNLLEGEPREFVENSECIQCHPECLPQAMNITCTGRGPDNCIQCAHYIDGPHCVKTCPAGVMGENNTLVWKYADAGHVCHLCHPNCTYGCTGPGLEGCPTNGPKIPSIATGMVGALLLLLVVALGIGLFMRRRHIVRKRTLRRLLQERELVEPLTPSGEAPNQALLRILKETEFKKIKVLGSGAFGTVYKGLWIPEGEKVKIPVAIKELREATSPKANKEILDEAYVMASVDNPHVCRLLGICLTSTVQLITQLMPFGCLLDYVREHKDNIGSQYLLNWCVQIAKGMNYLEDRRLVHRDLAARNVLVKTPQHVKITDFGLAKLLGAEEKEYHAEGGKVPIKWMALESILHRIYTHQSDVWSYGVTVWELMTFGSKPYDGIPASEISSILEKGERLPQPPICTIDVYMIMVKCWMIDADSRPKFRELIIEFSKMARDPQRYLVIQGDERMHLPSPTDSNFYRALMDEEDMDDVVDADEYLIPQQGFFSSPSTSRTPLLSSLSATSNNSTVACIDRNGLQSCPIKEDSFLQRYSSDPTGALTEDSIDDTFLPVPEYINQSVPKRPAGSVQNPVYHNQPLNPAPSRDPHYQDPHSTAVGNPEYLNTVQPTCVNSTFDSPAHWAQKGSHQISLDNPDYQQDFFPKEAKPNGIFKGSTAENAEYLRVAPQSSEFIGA
Platelet-derived growth factor receptor beta, sequence (P09619 whole entry): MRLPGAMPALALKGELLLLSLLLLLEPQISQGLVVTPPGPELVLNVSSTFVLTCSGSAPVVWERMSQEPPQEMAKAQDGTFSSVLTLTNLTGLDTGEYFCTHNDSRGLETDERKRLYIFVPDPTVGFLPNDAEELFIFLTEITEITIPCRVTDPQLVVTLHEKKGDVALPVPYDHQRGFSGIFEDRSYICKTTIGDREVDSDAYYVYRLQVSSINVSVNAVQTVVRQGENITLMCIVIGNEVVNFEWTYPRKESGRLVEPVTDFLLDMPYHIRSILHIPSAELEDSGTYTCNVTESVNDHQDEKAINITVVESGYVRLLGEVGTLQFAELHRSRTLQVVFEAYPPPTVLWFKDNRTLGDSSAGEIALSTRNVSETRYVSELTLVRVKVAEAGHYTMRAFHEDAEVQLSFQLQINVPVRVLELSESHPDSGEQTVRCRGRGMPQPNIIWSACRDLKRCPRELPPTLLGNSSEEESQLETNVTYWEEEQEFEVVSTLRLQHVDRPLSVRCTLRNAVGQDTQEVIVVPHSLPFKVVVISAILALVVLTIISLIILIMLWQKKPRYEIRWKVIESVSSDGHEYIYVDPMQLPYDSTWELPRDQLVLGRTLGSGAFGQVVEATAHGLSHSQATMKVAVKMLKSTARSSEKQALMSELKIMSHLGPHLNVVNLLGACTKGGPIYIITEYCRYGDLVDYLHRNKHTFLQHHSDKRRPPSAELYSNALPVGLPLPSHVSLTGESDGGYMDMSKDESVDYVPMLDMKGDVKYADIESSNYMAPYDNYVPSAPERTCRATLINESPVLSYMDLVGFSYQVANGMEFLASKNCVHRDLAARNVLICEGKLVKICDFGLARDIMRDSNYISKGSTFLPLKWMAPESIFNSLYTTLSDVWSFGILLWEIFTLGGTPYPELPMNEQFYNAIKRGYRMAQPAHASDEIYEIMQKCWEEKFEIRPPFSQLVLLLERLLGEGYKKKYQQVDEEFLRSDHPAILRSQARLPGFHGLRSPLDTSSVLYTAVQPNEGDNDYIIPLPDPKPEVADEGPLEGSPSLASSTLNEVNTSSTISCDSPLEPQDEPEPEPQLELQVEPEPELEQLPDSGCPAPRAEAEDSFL
Vascular endothelial growth factor receptor 2, sequence (P35968 whole entry): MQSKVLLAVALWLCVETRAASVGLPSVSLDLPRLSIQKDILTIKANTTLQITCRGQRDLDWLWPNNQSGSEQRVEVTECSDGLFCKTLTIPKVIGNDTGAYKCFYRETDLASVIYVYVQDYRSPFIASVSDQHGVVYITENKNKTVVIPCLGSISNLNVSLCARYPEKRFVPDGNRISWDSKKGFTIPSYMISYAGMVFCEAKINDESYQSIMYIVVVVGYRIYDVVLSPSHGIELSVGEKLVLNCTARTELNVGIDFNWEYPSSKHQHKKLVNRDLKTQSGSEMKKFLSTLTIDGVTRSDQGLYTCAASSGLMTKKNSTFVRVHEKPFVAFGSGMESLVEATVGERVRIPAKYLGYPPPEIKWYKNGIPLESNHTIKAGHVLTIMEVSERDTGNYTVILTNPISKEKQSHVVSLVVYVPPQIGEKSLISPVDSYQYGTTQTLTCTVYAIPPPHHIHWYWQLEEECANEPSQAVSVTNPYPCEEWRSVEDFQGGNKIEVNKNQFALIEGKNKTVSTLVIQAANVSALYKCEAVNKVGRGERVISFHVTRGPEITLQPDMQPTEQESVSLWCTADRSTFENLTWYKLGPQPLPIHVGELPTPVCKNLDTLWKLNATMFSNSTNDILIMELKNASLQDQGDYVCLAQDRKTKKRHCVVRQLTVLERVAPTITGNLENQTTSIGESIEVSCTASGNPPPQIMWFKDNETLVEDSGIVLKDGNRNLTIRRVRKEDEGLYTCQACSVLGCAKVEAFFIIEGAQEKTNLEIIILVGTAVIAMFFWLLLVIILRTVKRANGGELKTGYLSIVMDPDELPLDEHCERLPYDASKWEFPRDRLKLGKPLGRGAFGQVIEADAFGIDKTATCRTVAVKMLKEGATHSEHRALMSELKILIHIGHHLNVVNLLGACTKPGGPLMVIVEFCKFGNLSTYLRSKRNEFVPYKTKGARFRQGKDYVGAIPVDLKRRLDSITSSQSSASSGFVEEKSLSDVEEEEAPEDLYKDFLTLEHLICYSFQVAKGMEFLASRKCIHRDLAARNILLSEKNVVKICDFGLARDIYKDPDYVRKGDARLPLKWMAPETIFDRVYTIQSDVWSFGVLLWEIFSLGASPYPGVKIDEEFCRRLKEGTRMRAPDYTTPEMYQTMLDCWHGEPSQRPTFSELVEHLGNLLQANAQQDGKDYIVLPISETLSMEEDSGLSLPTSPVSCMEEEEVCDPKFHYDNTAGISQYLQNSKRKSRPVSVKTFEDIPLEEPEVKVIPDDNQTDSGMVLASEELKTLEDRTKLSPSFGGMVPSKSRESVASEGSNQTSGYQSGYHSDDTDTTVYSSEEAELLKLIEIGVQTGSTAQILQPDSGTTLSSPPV

Compound: c1ccc(COc2cccc(Nc3ncnc4cc5c(cc34)OCCOCCO5)c2)cc1
IC50 (HepG2 [1]): > 100 µM
IC50 (SH-SY5Y): 68.4 µM
IC50 (A549): 7.59 µM
IC50 (MCF7): 40.9 µM
IC50 (DU-145): > 100 µM
IC50 [2]: > 100 µM

Compound: O=[N+]([O-])c1ccc(COc2ccccc2Nc2ncnc3cc4c(cc23)OCCOCCOCCO4)cc1
IC50 (HepG2 [1]): 60.8 µM
IC50 (SH-SY5Y): 75.5 µM
IC50 (A549): 29.9 µM
IC50 (MCF7): > 100 µM
IC50 (DU-145): > 100 µM

Compound: c1ccc(COc2ccccc2Nc2ncnc3cc4c(cc23)OCCOCCOCCO4)cc1
IC50 (HepG2 [1]): 37.3 µM
IC50 (SH-SY5Y): 98.4 µM
IC50 (A549): 6.94 µM
IC50 (MCF7): 63.3 µM
IC50 (DU-145): 13.9 µM
IC50 [2]: > 100 µM

Compound: c1ccc(COc2ccccc2Nc2ncnc3cc4c(cc23)OCCOCCO4)cc1
IC50 (HepG2 [1]): > 100 µM
IC50 (SH-SY5Y): 93.7 µM
IC50 (A549): > 100 µM
IC50 (MCF7): > 100 µM
IC50 (DU-145): > 100 µM

Compound: CNC(=O)c1cc(Oc2ccc(NC(=O)Nc3ccc(Cl)c(C(F)(F)F)c3)cc2)ccn1 [SORAFENIB]
IC50 (HepG2 [1]): 7.84 µM
IC50 (SH-SY5Y): > 100 µM
IC50 (A549): 25.7 µM
IC50 (MCF7): 38.2 µM
IC50 (DU-145): 83.7 µM
inhibition in vivo at 40 mg/kg (HepG2 [3]): 100%
Activity [4]: Non-Toxic
Activity [5]: Toxic

Now from value to molecule, other results behind:

IC50 (HepG2 [1]): 65.3 µM
IC50 (SH-SY5Y): 36.6 µM
IC50 (A549): 15.5 µM
IC50 (MCF7): 42.4 µM
IC50 (DU-145): > 100 µM
Compound: O=[N+]([O-])c1ccc(COc2cccc(Nc3ncnc4cc5c(cc34)OCCOCCO5)c2)cc1

IC50 (HepG2 [1]): > 100 µM
IC50 (SH-SY5Y): > 100 µM
IC50 (A549): > 100 µM
IC50 (MCF7): > 100 µM
IC50 (DU-145): > 100 µM
Compound: O=[N+]([O-])c1ccc(COc2ccc(Nc3ncnc4cc5c(cc34)OCCOCCOCCOCCO5)cc2)cc1

IC50 (HepG2 [1]): > 100 µM
IC50 (SH-SY5Y): 22.8 µM
IC50 (A549): > 100 µM
IC50 (MCF7): > 100 µM
IC50 (DU-145): > 100 µM
Compound: c1ccc(COc2cccc(Nc3ncnc4cc5c(cc34)OCCOCCOCCO5)c2)cc1

IC50 (HepG2 [1]): 3.34 µM
IC50 (SH-SY5Y): 2.14 µM
IC50 (A549): 8.56 µM
IC50 (MCF7): 10 µM
IC50 (DU-145): 8.8 µM
IC50 [6]: 385 nM
IC50 [7]: 46.4 nM
IC50 [8]: 674 nM
Compound: FC(F)(F)c1ccc(COc2ccc(Nc3ncnc4cc5c(cc34)OCCOCCOCCOCCO5)cc2)cc1
IC50 [2]: 38.2 µM
Activity (HepG2 [9]): 71.3%
Activity (HepG2 [10]): 3.72%
Activity (HepG2 [11]): 24%
Activity (HepG2 [12]): 1.01%
Activity (HepG2 [13]): 35%
Activity (HepG2 [14]): 8.89%
Activity (HepG2 [15]): 52.5%
Activity (HepG2 [16]): 3.61%
Activity (HepG2 [17]): 29.1%
Activity (HepG2 [18]): 8.27%
Activity (HepG2 [19]): 61.3%
Activity (HepG2 [20]): 1.35%
Activity (HepG2 [21]): Active
Activity (HepG2 [22]): Active
Activity (HepG2 [23]): Active
Activity (HepG2 [24]): Active
Activity (HepG2 [25]): Active
Activity (HepG2 [26]): Active
Activity (HepG2 [27]): Dose-dependent effect
Activity (HepG2 [28]): Active
inhibition (HepG2 [29]): Dose-dependent effect
inhibition in vivo at 40 mg/kg (HepG2 [3]): 100%
Activity [30]: Non-Toxic
Activity [5]: Toxic

IC50 (HepG2 [1]): > 100 µM
IC50 (SH-SY5Y): 23.9 µM
IC50 (A549): > 100 µM
IC50 (MCF7): 8.34 µM
IC50 (DU-145): > 100 µM
Compound: c1ccc(COc2ccc(Nc3ncnc4cc5c(cc34)OCCOCCOCCO5)cc2)cc1
IC50 [2]: > 100 µM

IC50 (HepG2 [1]): > 100 µM
IC50 (SH-SY5Y): > 100 µM
IC50 (A549): > 100 µM
IC50 (MCF7): > 100 µM
IC50 (DU-145): > 100 µM
Compound: O=[N+]([O-])c1ccc(COc2cccc(Nc3ncnc4cc5c(cc34)OCCOCCOCCO5)c2)cc1

IC50 (HepG2 [1]): 5.7 µM
IC50 (SH-SY5Y): 8.56 µM
IC50 (A549): 8.52 µM
IC50 (MCF7): 8.48 µM
IC50 (DU-145): 26.9 µM
Compound: FC(F)(F)c1ccc(COc2cccc(Nc3ncnc4cc5c(cc34)OCCOCCOCCOCCO5)c2)cc1
IC50 [2]: 45.2 µM
